From patent US7981904B2, “Acetyl CoA carboxylase inhibitors” (Takeda Pharmaceutical Company Limited, priority 2008, dated 2011) come the findings set out here.

Broadly, the IC50 is the concentration that inhibits the measured activity by half.

One assay has as its target T1, Human ACC2 (Homo sapiens, UniProt O00763).
T1 construct: made in house; host or cells: SF-9 insect cells (baculovirus, pFAST-BacHTa)
As to the kind of experiment: in vitro enzymatic ACC activity assay (malachite green, absorbance at 620 nm), ACC2. Type of assay: biochemical. The settings on record: recombinant His-tagged human ACC2, 6.4 μg/mL; same method as ACC1. The method, then: (§1) Provided in Example A is an in vitro enzymatic ACC activity assay for activity against ACC. The binding affinity of the test compound to ACC1 or ACC2 is determined by the changes in absorbance (at 620 nm); […]. It should be noted that a variety of other expression systems and hosts are also suitable for the expression of ACC, as would be readily appreciated by one of skill in the art.
B. Purification of Human ACC2
Human ACC2 cDNA except coding region for mitochondria localization sequence was amplified from human skeletal muscle cDNA by polymerase chain reaction using primers; 5′[…]3′ (SEQ ID NO: 3) and 5′[…]3′ (SEQ ID NO: 4). The amplified DNA fragment was digested by SalI and AflIII, and cloned into pFAST-BacHTa (Invitrogen). Preparation of recombinant vaculovirus, infection of the virus to SF-9 cells and purification of recombinant ACC2 protein with 6×His-tag at the N-terminal were performed in the same method as described above.
(§2) C. Measurement of ACC Activity
(§3) Malachite green solution was prepared by mixing 100 mL of solution A (0.12% malachite green in 5N H2SO4), 25 mL of solution B (7.5% ammonium molybdate) and 2 mL of solution C (11% TWEEN-20).
(§4) ACC1 was diluted to 8 μg/mL in reaction buffer (50 mM HEPES pH7.5, 10 mM MgCl2, 10 mM tripotassium citrate, 2 mM DTT, 0.75 mg/mL fatty acid free BSA) and 10 μL diluted enzyme solution was pored into each well of 384-well clear bottom plate. Test compound was diluted in the reaction buffer and 5 μL of the compound solution was added into each well, and the mixture was incubated at 30° C. for 60 minutes. Reaction was initiated by addition of 5 μL substrate solution (50 mM KHCO3, 200 μM ATP, 200 μM acetyl-CoA). After incubation at 30° C. for 20 minutes, reaction was terminated by addition of 5 μL malachite green solution and absorbance at 620 nm was measured.
ACC2 was diluted to 6.4 μg/mL in reaction buffer, and the activity was measured by the same method as described for ACC1.
(§5) Percent activity at each concentration of compound was calculated from the following equation:
(§6) [formula] where Abs is absorbance, Avg is average.
(§7) Data were subjected to nonlinear regression analysis using GraphPad Prism Software (GraphPad Software Inc.) to obtain IC50 values.

The next assay concerns the target T2, Human ACC1 (Homo sapiens, UniProt Q13085).
T2 construct: made in house; host or cells: SF-9 insect cells (baculovirus, pFAST-BacHTc)
Briefly: in vitro enzymatic ACC activity assay (malachite green, absorbance at 620 nm), ACC1. Format: biochemical. The settings on record: recombinant His-tagged human ACC1, 8 μg/mL; 60 min preincubation, 20 min reaction at 30° C. On the procedure:
as §1
A. Purification of Human ACC1
Human ACC1 cDNA was amplified from human liver cDNA by polymerase chain reaction using primers; 5′[…]3′ (SEQ ID NO. 1) and 5′[…]3′ (SEQ ID NO: 2). The amplified DNA fragment was digested by restriction enzyme SalI and NotI, and cloned into pFAST-BacHTc (Invitrogen). This plasmid DNA was used for preparation of recombinant vaculovirus with BAC-TO-BAC Baculovirus Expression System (Invitrogen).
SF-9 cells were infected with the vaculovirus and cultured at 27° C. for 3 days. Harvested cells were homogenized in buffer A (25 mM HEPES (pH7.5), 130 mM NaCl, 1 mM EDTA, 25 mM sodium glycerophosphate, 1 mM sodium orthovanadate, 10% glycerol, complete protease inhibitor), and subjected to ultracentrifuge at 185700×g for 50 min at 4° C. ACC1 protein with 6×His-tag at the N-terminal was purified from the supernatant using Ni-NTA Super Flow Gel (QIAGEN). Eluted protein was dialysed against buffer B (50 mM HEPES (pH 7.5), 300 mM NaCl, 10 mM MgCl2, 10 mM tripotassium citrate, 2 mM dithiothreitol) and concentrated using Vivaspin20 ultrafiltration tube (Sartorius).
as §2, §3, §4, §5, §6, §7

T1 sequence (O00763 117-2458 limits assumed): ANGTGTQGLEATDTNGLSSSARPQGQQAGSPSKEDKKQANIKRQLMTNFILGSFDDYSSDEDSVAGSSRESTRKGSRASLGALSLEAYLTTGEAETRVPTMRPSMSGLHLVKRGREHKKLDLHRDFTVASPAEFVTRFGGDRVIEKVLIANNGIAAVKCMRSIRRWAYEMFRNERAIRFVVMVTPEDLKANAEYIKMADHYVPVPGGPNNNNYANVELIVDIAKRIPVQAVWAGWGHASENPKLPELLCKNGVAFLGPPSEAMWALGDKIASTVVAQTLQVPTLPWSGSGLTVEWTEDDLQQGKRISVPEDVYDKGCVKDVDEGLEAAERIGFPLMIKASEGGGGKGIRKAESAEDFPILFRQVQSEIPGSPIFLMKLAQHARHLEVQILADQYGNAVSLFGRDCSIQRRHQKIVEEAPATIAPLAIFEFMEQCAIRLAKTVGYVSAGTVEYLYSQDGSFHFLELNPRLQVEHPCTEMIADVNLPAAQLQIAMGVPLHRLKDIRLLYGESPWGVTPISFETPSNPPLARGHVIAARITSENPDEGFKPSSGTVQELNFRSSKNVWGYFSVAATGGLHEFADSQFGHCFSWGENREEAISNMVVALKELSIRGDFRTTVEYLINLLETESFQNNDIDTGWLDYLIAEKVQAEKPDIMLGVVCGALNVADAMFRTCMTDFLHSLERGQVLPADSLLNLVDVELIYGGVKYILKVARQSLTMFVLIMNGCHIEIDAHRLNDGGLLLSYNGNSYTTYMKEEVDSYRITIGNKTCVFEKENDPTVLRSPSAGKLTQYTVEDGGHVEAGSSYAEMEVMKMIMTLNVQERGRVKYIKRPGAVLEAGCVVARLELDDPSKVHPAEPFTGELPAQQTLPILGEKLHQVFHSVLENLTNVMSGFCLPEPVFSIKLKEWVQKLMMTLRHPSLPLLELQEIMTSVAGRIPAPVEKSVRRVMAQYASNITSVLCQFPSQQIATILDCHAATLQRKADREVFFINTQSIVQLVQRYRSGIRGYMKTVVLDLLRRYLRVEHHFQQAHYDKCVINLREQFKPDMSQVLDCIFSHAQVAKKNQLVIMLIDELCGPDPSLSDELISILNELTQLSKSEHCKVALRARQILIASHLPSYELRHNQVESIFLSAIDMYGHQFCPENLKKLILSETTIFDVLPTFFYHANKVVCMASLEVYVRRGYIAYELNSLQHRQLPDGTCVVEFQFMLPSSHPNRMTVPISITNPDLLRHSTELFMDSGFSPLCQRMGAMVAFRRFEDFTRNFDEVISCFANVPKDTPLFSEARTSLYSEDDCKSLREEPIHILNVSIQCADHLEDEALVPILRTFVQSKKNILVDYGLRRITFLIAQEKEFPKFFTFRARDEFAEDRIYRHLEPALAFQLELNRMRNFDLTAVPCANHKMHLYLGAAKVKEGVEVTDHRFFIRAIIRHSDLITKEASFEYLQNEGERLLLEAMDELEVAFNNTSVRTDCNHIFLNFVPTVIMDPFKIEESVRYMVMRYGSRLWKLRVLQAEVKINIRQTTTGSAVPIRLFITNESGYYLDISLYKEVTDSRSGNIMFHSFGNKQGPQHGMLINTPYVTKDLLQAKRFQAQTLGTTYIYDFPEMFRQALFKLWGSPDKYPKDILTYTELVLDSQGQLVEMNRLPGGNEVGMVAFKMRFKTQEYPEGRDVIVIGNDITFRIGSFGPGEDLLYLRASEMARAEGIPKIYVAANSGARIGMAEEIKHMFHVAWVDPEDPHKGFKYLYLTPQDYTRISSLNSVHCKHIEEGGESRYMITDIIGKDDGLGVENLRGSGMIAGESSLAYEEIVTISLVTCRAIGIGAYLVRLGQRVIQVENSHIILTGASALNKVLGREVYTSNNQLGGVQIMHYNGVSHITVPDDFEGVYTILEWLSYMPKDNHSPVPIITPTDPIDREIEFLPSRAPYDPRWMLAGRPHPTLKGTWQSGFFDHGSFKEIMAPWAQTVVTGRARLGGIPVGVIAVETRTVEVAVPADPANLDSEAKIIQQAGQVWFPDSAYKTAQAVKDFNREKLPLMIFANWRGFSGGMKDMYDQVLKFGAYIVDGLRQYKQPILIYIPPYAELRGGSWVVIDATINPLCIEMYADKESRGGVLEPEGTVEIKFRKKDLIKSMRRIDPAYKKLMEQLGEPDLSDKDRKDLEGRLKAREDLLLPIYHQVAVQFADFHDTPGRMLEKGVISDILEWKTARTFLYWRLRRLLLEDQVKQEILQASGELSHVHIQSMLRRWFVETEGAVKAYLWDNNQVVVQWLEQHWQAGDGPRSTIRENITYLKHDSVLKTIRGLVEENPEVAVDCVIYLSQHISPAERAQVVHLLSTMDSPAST

For `CCNC(=O)Nc1sc2ccccc2c1C(=O)N1CCC2(CC1)N=C(COc1ccccc1OC)NC2=O` [Compound 25, 1-ethyl-3-(3-(2-((2-methoxyphenoxy)methyl)-4-oxo-1,3,8-triazaspiro[4.5]dec-1-enecarbonyl)benzo[b]thiophen-2-yl)urea], the IC50 is less than 1 µM at Human ACC2 and 1 to 10 µM on Human ACC1.

With `CCNC(=O)Nc1sc2ccccc2c1C(=O)N1CCC2(CC1)N=C(COc1ccccc1C#N)NC2=O` [Compound 26, 1-(3-(2-((2-cyanophenoxy)methyl)-4-oxo-1,3,8-triazaspiro[4.5]dec-1-enecarbonyl)benzo[b]thiophen-2-yl)-3-ethylurea], the IC50 was less than 1 µM at Human ACC2 and greater than 10 µM at Human ACC1.

On to `CCNC(=O)Nc1sc2ccccc2c1C(=O)N1CCC2(CC1)N=C(COc1ccccc1C(N)=O)NC2=O` [Compound 27, 2-((8-(2-(3-ethylureido)benzo[b]thiophene-3-carbonyl)-4-oxo-1,3,8-triazaspiro[4.5]dec-1-en-2-yl)methoxy)benzamide], for which the values for the 50% inhibitory concentration (IC50) on Human ACC2 and on Human ACC1 were less than 1 µM and greater than 10 µM, respectively.

Consider `CCNC(=O)Nc1sc2ccccc2c1C(=O)N1CCC2(CC1)N=C(COC1CCCCC1)NC2=O` [Compound 28, 1-(3-(2-(cyclohexyloxymethyl)-4-oxo-1,3,8-triazaspiro[4.5]dec-1-enecarbonyl)benzo[b]thiophen-2-yl)-3-ethylurea], for which the results for the IC50 at Human ACC2 and at Human ACC1 were less than 1 µM and 1 to 10 µM, respectively.

Turning to `CCNC(=O)Nc1sc2ccccc2c1C(=O)N1CCC2(CC1)N=C(COC(C)C)NC2=O` [Compound 29, 1-ethyl-3-(3-(2-(isopropoxymethyl)-4-oxo-1,3,8-triazaspiro[4.5]dec-1-enecarbonyl)benzo[b]thiophen-2-yl)urea], the IC50 at Human ACC2 and at Human ACC1 was 1 to 10 µM in each case.

For `CCNC(=O)Nc1sc2ccccc2c1C(=O)N1CCC2(CC1)N=C(COCC(C)C)NC2=O` [Compound 30, 1-ethyl-3-(3-(2-(isobutoxymethyl)-4-oxo-1,3,8-triazaspiro[4.5]dec-1-enecarbonyl)benzo[b]thiophen-2-yl)urea], the IC50 was less than 1 µM at Human ACC2 and 1 to 10 µM at Human ACC1.

As for `CCNC(=O)Nc1sc2c(OC)cccc2c1C(=O)N1CCC2(CC1)N=C(COCC(C)C)NC2=O` [Compound 31, 1-ethyl-3-(3-(2-(isobutoxymethyl)-4-oxo-1,3,8-triazaspiro[4.5]dec-1-enecarbonyl)-7-methoxybenzo[b]thiophen-2-yl)urea], the IC50 on Human ACC2 and on Human ACC1 was less than 1 µM each time.

On to `CCNC(=O)Nc1sc2c(OC)cccc2c1C(=O)N1CCC2(CC1)N=C(COC1CCCCC1)NC2=O` [Compound 32, 1-(3-(2-(cyclohexyloxymethyl)-4-oxo-1,3,8-triazaspiro[4.5]dec-1-enecarbonyl)-7-methoxybenzo[b]thiophen-2-yl)-3-ethylurea], for which the IC50 at Human ACC2 and on Human ACC1 was less than 1 µM each time.

As for `CCNC(=O)Nc1sc2ccccc2c1C(=O)N1CCC2(CC1)N=C(Cn1ccccc1=O)NC2=O` [Compound 33, 1-ethyl-3-(3-(4-oxo-2-((2-oxopyridin-1(2 H)-yl)methyl)-1,3,8-triazaspiro[4.5]dec-1-enecarbonyl)benzo[b]thiophen-2-yl)urea], the concentration for half-maximal inhibition (IC50) on Human ACC2 is 1 to 10 µM; at Human ACC1 it was greater than 10 µM.

`CCNC(=O)Nc1sc2ccccc2c1C(=O)N1CCC2(CC1)N=C(Cn1cc(CN)nn1)NC2=O` [Compound 34, 1-(3-(2-((4-(aminomethyl)-1 H-1,2,3-triazol-1-yl)methyl)-4-oxo-1,3,8-triazaspiro[4.5]dec-1-enecarbonyl)benzo[b]thiophen-2-yl)-3-ethylurea]: the IC50 at Human ACC2 and at Human ACC1 was greater than 10 µM throughout.

As for `CCNC(=O)Nc1sc2ccccc2c1C(=O)N1CCC2(CC1)N=C(Cn1cc(CN(C)C)nn1)NC2=O` [Compound 35, 1-(3-(2-((4-((dimethylamino)methyl)-1 H-1,2,3-triazol-1-yl)methyl)-4-oxo-1,3,8-triazaspiro[4.5]dec-1-enecarbonyl)benzo[b]thiophen-2-yl)-3-ethylurea], the IC50 was 1 to 10 µM at Human ACC2 and greater than 10 µM on Human ACC1.

As for `CCNC(=O)Nc1sc2ccccc2c1C(=O)N1CCC2(CC1)N=C(Cn1cc(C(C)(C)C)nn1)NC2=O` [Compound 36, 1-(3-(2-((4-tert-butyl-1 H-1,2,3-triazol-1-yl)methyl)-4-oxo-1,3,8-triazaspiro[4.5]dec-1-enecarbonyl)benzo[b]thiophen-2-yl)-3-ethylurea], the IC50 is less than 1 µM on Human ACC2 and 1 to 10 µM at Human ACC1.

As to `CCNC(=O)Nc1sc2ccccc2c1C(=O)N1CCC2(CC1)N=C(Cn1cc(CO)nn1)NC2=O` [Compound 37, 1-ethyl-3-(3-(2-((4-(hydroxymethyl)-1 H-1,2,3-triazol-1-yl)methyl)-4-oxo-1,3,8-triazaspiro[4.5]dec-1-enecarbonyl)benzo[b]thiophen-2-yl)urea], the figures for the IC50 on Human ACC2 and at Human ACC1 were 1 to 10 µM and greater than 10 µM, respectively.

Regarding `CCNC(=O)Nc1sc2ccccc2c1C(=O)N1CCC2(CC1)N=C(Cn1cc(C3CC3)nn1)NC2=O` [Compound 38, 1-(3-(2-((4-cyclopropyl-1 H-1,2,3-triazol-1-yl)methyl)-4-oxo-1,3,8-triazaspiro[4.5]dec-1-enecarbonyl)benzo[b]thiophen-2-yl)-3-ethylurea], the results for the IC50 on Human ACC2 and on Human ACC1 were less than 1 µM and 1 to 10 µM, respectively.
